Assays:
[1] = molecular target: T1, 5-hydroxytryptamine receptor 1A (Rattus norvegicus, UniProt P19327); experiment: Displacement of [3H]8-OH-DPAT from 5-hydroxytryptamine 1A receptor of rat cerebral cortex membranes; format: cell membranes, Membrane
T1 sequence (P19327 whole entry): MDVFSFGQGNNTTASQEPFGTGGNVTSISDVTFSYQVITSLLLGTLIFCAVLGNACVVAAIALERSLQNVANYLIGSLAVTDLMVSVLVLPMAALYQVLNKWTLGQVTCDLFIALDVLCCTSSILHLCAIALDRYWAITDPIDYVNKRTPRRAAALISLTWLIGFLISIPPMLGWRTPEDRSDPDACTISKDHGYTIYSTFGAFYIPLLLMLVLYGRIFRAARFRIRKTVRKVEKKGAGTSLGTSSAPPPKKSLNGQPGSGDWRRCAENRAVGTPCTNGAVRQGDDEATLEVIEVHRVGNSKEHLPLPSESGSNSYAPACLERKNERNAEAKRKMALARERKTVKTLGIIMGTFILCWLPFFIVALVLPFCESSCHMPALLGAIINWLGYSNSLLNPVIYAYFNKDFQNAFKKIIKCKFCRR

[2] = molecular target: T2, Serotonin 3 (5-HT3) receptor (Rattus norvegicus, UniProt P35563+Q9JJ16); experiment: Binding affinity for 5-HT3 receptor by displacement of [3H]-LY 278584 in rat cerebral cortex membranes; format: cell membranes, Membrane
T2 sequence (P35563 whole entry): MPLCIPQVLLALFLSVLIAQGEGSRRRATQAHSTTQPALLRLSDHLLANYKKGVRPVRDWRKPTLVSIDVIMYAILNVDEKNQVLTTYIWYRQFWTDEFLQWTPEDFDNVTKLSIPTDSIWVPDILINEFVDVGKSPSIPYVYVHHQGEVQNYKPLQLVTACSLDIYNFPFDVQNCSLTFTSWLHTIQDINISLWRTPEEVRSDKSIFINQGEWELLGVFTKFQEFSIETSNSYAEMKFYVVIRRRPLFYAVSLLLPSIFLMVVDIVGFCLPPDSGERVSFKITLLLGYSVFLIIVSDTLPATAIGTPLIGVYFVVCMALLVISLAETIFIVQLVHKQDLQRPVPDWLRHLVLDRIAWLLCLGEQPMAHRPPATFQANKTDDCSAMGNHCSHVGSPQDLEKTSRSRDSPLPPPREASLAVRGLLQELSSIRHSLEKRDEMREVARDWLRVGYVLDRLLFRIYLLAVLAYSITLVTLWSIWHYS
T2 sequence (Q9JJ16 whole entry): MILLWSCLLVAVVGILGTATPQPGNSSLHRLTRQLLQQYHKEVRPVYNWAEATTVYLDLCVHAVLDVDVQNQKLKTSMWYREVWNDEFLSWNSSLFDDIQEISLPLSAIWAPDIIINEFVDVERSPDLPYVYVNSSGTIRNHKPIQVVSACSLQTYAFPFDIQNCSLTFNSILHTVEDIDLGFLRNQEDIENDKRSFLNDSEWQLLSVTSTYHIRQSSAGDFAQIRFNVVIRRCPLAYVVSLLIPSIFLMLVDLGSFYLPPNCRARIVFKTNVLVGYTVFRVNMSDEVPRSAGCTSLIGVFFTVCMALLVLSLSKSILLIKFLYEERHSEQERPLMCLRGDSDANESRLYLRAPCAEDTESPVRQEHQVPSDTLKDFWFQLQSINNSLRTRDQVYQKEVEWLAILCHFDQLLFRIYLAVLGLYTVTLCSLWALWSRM

[3] = species: Cavia porcellus; experiment: Blockade of isolated longitudinal muscle myenteric plexus contraction from guinea-pig ileum; format: functional; conditions: Muscle tissue

Structure (SMILES)	Ki [1] [nM]	Ki [2] [nM]	IC50 [3] [nM]
O=C(NC1CN2CCC1CC2)c1cccc2nc(CN3CCN(c4ccccc4)CC3)[nH]c12 (centres undefined)	> 1000	23.1	–
O=C(NC1CN2CCC1CC2)c1cccc2nc(CN3CCN(c4cccc5nc[nH]c45)CC3)[nH]c12 (centres undefined)	148	> 1000	–
CC(C)Oc1ccccc1N1CCN(Cc2nc3cccc(C(=O)NC4CN5CCC4CC5)c3[nH]2)CC1 (centres undefined)	34.4	62.1	–
CCOc1ccccc1N1CCN(Cc2nc3c(C(=O)NC4CN5CCC4CC5)cccc3[nH]2)CC1 (centres undefined)	18	27.2	190
O=C(NC1CN2CCC1CC2)c1cccc2nc(CN3CCN(c4cccc(C(F)(F)F)c4)CC3)[nH]c12 (centres undefined)	> 10000	23.9	–
COc1ccccc1N1CCN(Cc2nc3cccc(C(=O)NC4CN5CCC4CC5)c3[nH]2)CC1 (centres undefined)	150	10.3	–
CCCOc1ccccc1N1CCN(Cc2nc3c(C(=O)NC4CN5CCC4CC5)cccc3[nH]2)CC1 (centres undefined)	56.1	24.6	–
CCCCOc1ccccc1N1CCN(Cc2nc3c(C(=O)NC4CN5CCC4CC5)cccc3[nH]2)CC1 (centres undefined)	45.9	15.1	–
O=C(NC1CN2CCC1CC2)c1cccc2[nH]c(CN3CCN(c4cccc(Cl)c4)CC3)nc12 (centres undefined)	> 10000	18.3	–
O=C(NC1CN2CCC1CC2)c1cccc2[nH]c(CN3CCN(c4ccc5c(c4)OCO5)CC3)nc12 (centres undefined)	467	24	–
O=C(NC1CN2CCC1CC2)c1cccc2[nH]c(CN3CCN(c4cccc5ccccc45)CC3)nc12 (centres undefined)	> 1000	32.5	–
Cc1nccn1CC1CCc2c(c3ccccc3n2C)C1=O (centres undefined) [ONDANSETRON]	–	–	240
